By pIC50 is commonly meant the negative decadic logarithm of the IC50, by convention in mol/L. A low value points to a high IC50.

Results on six compounds are retold here after patent USRE39616E1, “Aminoindan derivatives” (priority 1996, dated 2007).

Molecules are shown by their SMILES. pIC50: −log10 of the molar value. Structures can show the parent of a compound that is named as a salt. Where two headings read alike, the source gives them in different places. Marks after values point to notes of the source that are not given here. Bounds are passed on as bounds.

The target in test [1] is T1, whole brain AChE (Mus musculus, UniProt P21836).
T1 sequence (P21836 32-614): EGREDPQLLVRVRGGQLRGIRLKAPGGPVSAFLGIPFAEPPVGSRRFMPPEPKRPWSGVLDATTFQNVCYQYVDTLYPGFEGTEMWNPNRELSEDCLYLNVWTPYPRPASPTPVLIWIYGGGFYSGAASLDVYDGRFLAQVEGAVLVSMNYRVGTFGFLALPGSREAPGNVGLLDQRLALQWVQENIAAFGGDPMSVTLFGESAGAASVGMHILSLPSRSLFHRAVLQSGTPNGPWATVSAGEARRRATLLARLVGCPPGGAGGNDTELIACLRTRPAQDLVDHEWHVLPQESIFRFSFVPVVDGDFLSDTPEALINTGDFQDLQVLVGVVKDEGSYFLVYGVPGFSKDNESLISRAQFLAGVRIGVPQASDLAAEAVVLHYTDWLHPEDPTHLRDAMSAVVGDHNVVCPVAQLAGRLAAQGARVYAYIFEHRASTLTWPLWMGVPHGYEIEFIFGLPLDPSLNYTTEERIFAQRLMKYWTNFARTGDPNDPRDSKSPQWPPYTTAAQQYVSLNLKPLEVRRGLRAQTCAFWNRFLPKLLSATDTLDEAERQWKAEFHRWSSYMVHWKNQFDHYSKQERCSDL
The following applies: for AChE Inhibition Ex vivo ED50 (AC): mice, whole brain, at peak of activity; for AChE Inhibition Time to peak activity t / AChE Inhibition Time to return to 50% of peak t: mouse, in vivo.

Test [2] addresses T2, MAO-B (Rattus norvegicus, UniProt P19643).
T2 sequence (P19643 1-520): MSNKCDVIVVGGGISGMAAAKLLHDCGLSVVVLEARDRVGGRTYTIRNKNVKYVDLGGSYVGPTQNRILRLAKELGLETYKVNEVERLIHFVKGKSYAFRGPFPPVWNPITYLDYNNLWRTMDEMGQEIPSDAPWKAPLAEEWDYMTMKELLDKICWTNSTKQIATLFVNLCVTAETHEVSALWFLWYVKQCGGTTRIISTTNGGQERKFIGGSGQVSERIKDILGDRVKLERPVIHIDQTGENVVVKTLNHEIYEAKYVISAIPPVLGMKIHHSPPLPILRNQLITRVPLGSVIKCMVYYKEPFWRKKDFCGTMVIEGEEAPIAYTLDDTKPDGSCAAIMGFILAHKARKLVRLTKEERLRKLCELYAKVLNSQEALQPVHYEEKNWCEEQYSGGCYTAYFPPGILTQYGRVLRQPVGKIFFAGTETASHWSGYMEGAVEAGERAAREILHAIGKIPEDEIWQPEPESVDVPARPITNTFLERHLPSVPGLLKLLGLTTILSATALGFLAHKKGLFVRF
The experiment in a line: Inhibition of MAO activity in vitro, PEA as substrate. In kind it is biochemical. Also noted: The MAO enzyme source was a homogenate of rat brain in 0.3M sucrose; from tissue; host or cells: rat brain homogenate, 600 g supernatant. The following applies: MAO-B Inhibition In vitro IC50, rat brain homogenate. As for the experimental part: (§1) Substrate concentrations used were 50 μM (PEA) and 1 mM (5-HT).

Test [3] deals with Closed Head Injury (CHI) in Mice. The experiment in a line: Closed Head Injury (CHI) in mice: motor function, neurological severity score (NSS). The following applies: difference from NSS at 1 hr. The test is classed as in vivo.
The subject of test [4] is Middle Cerebral Artery Occlusion (MCA-O) in Male Wistar Rats. The following applies: rat, in vivo.
For test [5] the test system is unchanged.
Procedure: Male Wistar rats (Olac England-Jerusalem) 300-400 g each were anesthetized with a solution of Equitesine administered i.p. at a dose of 3 ml/kg. Equitesine consists of 13.5 ml sodium pentothal solution (60 mg/ml), 3.5 g chloral hydrate, 1.75 g MgSO4, 33 ml propylene glycol, 8.3 ml absolute alcohol, made up to 83 ml with distilled water.
The dura matter was opened carefully using a 27 gauge needle The MCA was permanently occluded by microbipolar coagulation at low power setting, beginning 2-3 mm medial to the olfactory tract between its cortical branch to the rhinal cortex and the laterate striate arteries. After coagulation, the MCA was severed with microscissors and divided to ensure complete occlusion. Following this, the temporalis muscle was sutured and laid over the craniectomy site. The skin was closed with a running 3-0 silk suture. A sham craniectomy operation was performed on a parallel group of rats, but without cauterization of the MCA.
At 24 and 48 hours post surgery a neurological score was taken in order to assess the severity of the injury in the drug-treated rats with respect to their untreated controls.
Drugs were administered as an s.c. injection, according to the following schedule:
The scale runs from 0 (fully normal rats) to 13 (fully incapacitated rats). Most parameters are rated as either 0 (normal), or 1 (incapacitated) others are graded. […]
For test [6], the target named is T3, MAO-A (Rattus norvegicus, UniProt P21396).
T3 sequence (P21396 1-526): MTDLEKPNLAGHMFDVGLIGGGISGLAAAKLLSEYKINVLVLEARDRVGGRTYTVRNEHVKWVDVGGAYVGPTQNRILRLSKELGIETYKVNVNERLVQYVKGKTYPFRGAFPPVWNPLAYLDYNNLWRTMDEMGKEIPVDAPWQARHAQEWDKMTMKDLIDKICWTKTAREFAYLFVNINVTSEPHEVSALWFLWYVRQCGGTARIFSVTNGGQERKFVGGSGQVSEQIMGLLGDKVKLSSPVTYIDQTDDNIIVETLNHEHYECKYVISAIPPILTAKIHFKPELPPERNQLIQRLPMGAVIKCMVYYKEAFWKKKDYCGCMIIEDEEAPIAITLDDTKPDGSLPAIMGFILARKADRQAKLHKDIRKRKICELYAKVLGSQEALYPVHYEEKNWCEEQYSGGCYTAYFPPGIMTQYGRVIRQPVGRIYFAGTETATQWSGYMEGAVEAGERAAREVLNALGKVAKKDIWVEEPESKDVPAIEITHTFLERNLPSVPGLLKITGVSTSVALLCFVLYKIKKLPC
The experiment in a line: in vivo. The following applies: for % MAO-A inhibition: HCl. Set-up: animals were sacrificed and MAO levels determined in the brain, liver and intestines; from tissue; host or cells: rat brain, liver and intestine. The test is classed as in vivo, rats. On the procedure: as §1
Male Sabra mice, weighing 45-50 g were injected with test compound solutions (prepared in 0.9% saline). Each dose was administered to two or three mice. The mice were sacrificed two hours after drug administration or at a time corresponding to the peak AChE inhibition time (see Table 11). The brain and liver were rapidly dissected and stored in appropriate vials on ice. The tissues were weighed, diluted to ½ in sucrose 0.3M and stored at −20° C. before performance of the MAO assay described above. The results given in Table 11 relate to measurements made on brain tissue only.
Experiments were done in Sprague Dawley male rats. […] At the end of this period animals were sacrificed and MAO levels determined in the brain, liver and intestines.

Test [7] deals with T4, Human erythrocyte acetylcholinesterase (Homo sapiens, UniProt P22303).
T4 construct: Human erythrocyte acetylcholinesterase (type XIII, Sigma Israel); purchased Sigma Israel type XIII; host or cells: human erythrocytes
The experiment in a line: biochemical. The test is classed as biochemical. The following applies: AChE Inhibition In vitro IC50. In outline: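 Erythrocyte AChE (type XIII) from 1 U/ml stock containing 1% Triton and 0.05% BSA in phosphate buffer pH 8; 0.05 U enzyme preincubated with 3-5 compound concentrations, triplicate, 15 to 60 minutes at 37° C. Percent inhibition calculated against drug-free enzyme.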

Setting [8] is: 15 mg/kg sc once 15 min after CHI.
Where [9] appears, read: 6.5 mg/kg sc once 15 min after CHI.
Setting [10] is: 46 mg/kg administered 60 min before CHl.
Where [11] appears, read: 46 mg/kg sc once 15 min after CHI.

T4 sequence (P22303 32-617 isoform P22303-2 limits assumed): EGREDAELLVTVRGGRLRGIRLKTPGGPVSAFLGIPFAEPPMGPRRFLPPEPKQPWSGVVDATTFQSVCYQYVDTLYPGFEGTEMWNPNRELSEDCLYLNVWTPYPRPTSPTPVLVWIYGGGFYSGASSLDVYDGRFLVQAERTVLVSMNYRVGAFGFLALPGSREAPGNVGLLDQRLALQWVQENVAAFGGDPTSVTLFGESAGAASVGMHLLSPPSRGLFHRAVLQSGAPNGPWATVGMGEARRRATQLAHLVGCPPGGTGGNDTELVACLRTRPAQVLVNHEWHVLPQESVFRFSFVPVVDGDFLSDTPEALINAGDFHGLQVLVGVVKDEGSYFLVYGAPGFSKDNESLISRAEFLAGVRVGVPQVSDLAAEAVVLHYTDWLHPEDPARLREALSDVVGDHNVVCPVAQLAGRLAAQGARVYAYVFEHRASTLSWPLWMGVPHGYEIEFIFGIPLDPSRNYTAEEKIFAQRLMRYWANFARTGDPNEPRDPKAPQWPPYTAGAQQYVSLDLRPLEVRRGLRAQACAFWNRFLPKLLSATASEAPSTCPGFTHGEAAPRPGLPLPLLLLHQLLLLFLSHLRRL

As to `CN(C)C(=O)Oc1ccc2c(c1)C(N)CC2` (centres unmarked) [Compound 1], in test [1], the “AChE Inhibition Ex vivo ED50 (AC)” value turned out to be 5.0 µmol/kg, the “AChE Inhibition Time to peak activity t” value came to 30 min and the “AChE Inhibition Time to return to 50% of peak t” value is more than 120 min. The compound further showed a pIC50 in test [2] of less than 3.00.

On to `CCN(C)C(=O)Oc1ccc2c(c1)C(NC)CC2` (centres unmarked) [Compound 10], for which, in test [3] (setting [8]), the “ΔNSS, 24 hr post-CHl” value is given as 5.36 ± 0.39; the “ΔNSS, 7 days post-CHl” value was 6.64 ± 0.41^m; the “ΔNSS, 14 days post-CHl” value is listed as 6.73 ± 0.52. Besides, in test [1], the “AChE Inhibition Ex vivo ED50 (AC)” value amounted to 34.7 µmol/kg, the “AChE Inhibition Time to peak activity t” value lay within 60 to 90 min and the “AChE Inhibition Time to return to 50% of peak t” value is more than 180 min.

As for `C#CCNC1CCc2ccc(OC(=O)N(C)C)cc21` (centres unmarked) [Compound 24, 6-(N,N-Dimethylcarbamyloxy)-N-propargyl aminoindan mesylate], the “ΔNSS, 24 hr post-CHl” value in test [3] (setting [9]) is 6.31 ± 0.23^m. Also, the “ΔNSS, 7 days post-CHl” value in test [3] (setting [9]) was 8.67 ± 0.41^m. Moreover, the “ΔNSS, 14 days post-CHl” value in test [3] (setting [9]) is on record as 9.67 ± 0.66^m. Besides, in test [4], the “Volume infarction Mean ± SD” value is on record as 152 ± 45 mm*. Also, the “ΔNSS (difference measured at 24 hours and 48 hours)” value in test [5] (s.c. […] 15 minutes prior to MCA-O and 6.5 mg/kg 2 hours post MCA-O) was 1.625. Moreover, the negative-log IC50 (pIC50) in test [2] is 3.12. Further, the inhibition at 10 mg/kg in test [6] (po, read-out: % MAO-A inhibition, Brain, po, 10 mg/kg daily for 14 days, rats) was determined as 0%; in test [6] (po, read-out: % MAO-A inhibition, Intestine, po, 10 mg/kg daily for 14 days, rats), 30%; in test [6] (po, read-out: % MAO-A inhibition, Liver, po, 10 mg/kg daily for 14 days, rats), 10%. For the same compound, the inhibition at 6 mg/kg came to 30% in test [6] (sc, read-out: % MAO-A inhibition, Brain, sc, 6 mg/kg daily for 14 days, rats); 0% in test [6] (sc, read-out: % MAO-A inhibition, Intestine, sc, 6 mg/kg daily for 14 days, rats); 0% in test [6] (sc, read-out: % MAO-A inhibition, Liver, sc, 6 mg/kg daily for 14 days, rats).

With `C#CCNC1CCc2ccc(OC(=O)N(C)CC)cc21` (centres unmarked) [Compound 25, 6-(N-Me, N-Etcarbamyloxy) N-propargyl aminoindan, HCl], the pIC50 in test [7] is 4.28. Besides, in test [3] (setting [10]), the “ΔNSS, 24 hr post-CHl” value is 4.90 ± 0.43; the “ΔNSS, 7 days post-CHl” value was 7.70 ± 0.33^m; the “ΔNSS, 14 days post-CHl” value was 8.80 ± 0.33^m. In test [3] (setting [11]), the “ΔNSS, 24 hr post-CHl” value is given as 5.00 ± 0.42; the “ΔNSS, 7 days post-CHl” value was 7.42 ± 0.62^m; the “ΔNSS, 14 days post-CHl” value is on record as 9.01 ± 0.69^m. Also, in test [4], the “Volume infarction Mean ± SD” value was 189 ± 54 mm*. Moreover, in test [1], the “AChE Inhibition Ex vivo ED50 (AC)” value amounted to 140.0 µmol/kg, the “AChE Inhibition Time to peak activity t” value was 60 min and the “AChE Inhibition Time to return to 50% of peak t” value was more than 180 min. Besides, the “ΔNSS (difference measured at 24 hours and 48 hours)” value in test [5] (s.c. 43 mg/kg 90 minutes prior to MCA-O and 30 mg/kg 3 hours post MCA-O) is reported as 1.78. In addition, the “selectivity of MAO inhibition, brain versus periphery (liver, intestines)” value in test [6] (in vivo) is “selectivity in inhibiting MAO enzyme sub-types in the brain in preference to the periphery”. Further, the “% MAO-A inhibition” value in test [6] (in vivo, po, 50 mg/kg) turned out to be 25%. Moreover, the “% MAO-A inhibition” value in test [6] (in vivo, sc, 25 mg/kg) is recorded as 0%.

On to `C#CCNC1CCc2cccc(OC(=O)N(C)C)c21` (centres unmarked) [Compound 27], for which the pIC50 in test [7] was 5.24. In test [1], the “AChE Inhibition Ex vivo ED50 (AC)” value was 30 µmol/kg, the “AChE Inhibition Time to peak activity t” value came to 15 min and the “AChE Inhibition Time to return to 50% of peak t” value is more than 60 min. The negative logarithm of the IC50 (pIC50) in test [2] is less than 3.00.

The compound `C#CCN(C)C1CCc2ccc(OC(=O)N(C)C)cc21` (centres unmarked) [Compound 29] had a pIC50 in test [7] of 5.07. In addition, in test [1], the “AChE Inhibition Ex vivo ED50 (AC)” value worked out at 53.7 µmol/kg, the “AChE Inhibition Time to peak activity t” value was 15 min and the “AChE Inhibition Time to return to 50% of peak t” value is recorded as more than 60 min. The compound further had a negative logarithm of the IC50 (pIC50) in test [2] of 4.40.
